According to patent US20250163119A1, “COMPOUNDS FOR THE TREATMENT OF DIABETES OR OBESITY” (Eli Lilly and Company, priority 2023, published 2025):
Values joined by “and” are separate entries in the source; they are usually repeats but may differ in a detail not shown here. Equal values may be shown once. Read-outs that look alike come from different tables or passages of the source. *1 amine or outer side, *2 acyl side, *3 side chain or, on linkers, in order; H or OH if unused. Where a SMILES comes first, the peptide text is derived from it. Side-chain parts run from the residue outwards. [ ]: non-standard residue; d: D form. The star is where a group is joined. C20 diacid = O=C(O)CCCCCCCCCCCCCCCCCCC(=O)*; γGlu = O=C(O)[C@H](CCC(=O)[*:2])N[*:1]; εLys = N[C@@H](CCCCN[*:1])C(=O)[*:2]; NMeI = CC[C@H](C)[C@H](NC)C(=O)O; αMeL = CC(C)C[C@](C)(N)C(=O)O; AEEA = NCCOCCOCC(=O)O; Aib = CC(C)(N)C(=O)O

Columns and labels:
[1] = system: MHC-II presented peptides on human dendritic cells; assay: MAPPS assay (MHC-Associated Peptide Proteomics); type: cell-based; settings: for peptides displayed on MHC-II complexes: human dendritic cells from normal donors; for immunogenicity compared with SEQ ID NO:54: in the MAPPs assay and/or the T cell proliferation assay
Description: MAPPS profiles the MHC-II presented peptides on human dendritic cells treated with tested molecules. CD14+ cells, isolated from the PBMCs of normal human donors, were cultured and differentiated into immature DCs by incubation with IL-4 and GM-CSF. On day 4, culture media was replaced with fresh media containing tested molecules. On day 5, LPS was added to transform the cells into mature DCs. On day 6, cells were lysed in RIPA buffer with protease inhibitors. Immunoprecipitation of MHC-II complexes were performed using biotinylated anti-MHC-II antibody coupled to streptavidin beads. The bound complex was eluted and filtered. The isolated MHC-II peptides were analyzed by a mass spectrometer. Peptide identifications were generated by an internal proteomics pipeline using search algorithms with no enzyme and a bovine/human database with test sequences appended to the database. A KNIME workflow was used to process the identification files from the samples. Peptides identified from the test articles were aligned against the parent sequence of the test molecule. The output was used to determine the percentage of donors displaying MHC-II peptides from regions of the test molecule. Polypeptides comprising SEQ ID NOs:54, 49, 50, 29, 41, 45, 1, 22, 25 were tested in the MAPPs assay. […] Depending on the donors, up to three major clusters were observed, each slightly shifted from the others, altogether spanning residues 1-33.

[2] = Pharmacokinetics in Yucatan mini-pigs, single subcutaneous or intravenous dose; type: in vivo
Description: Plasma concentrations of compounds were determined by LC/MS methods. For each assay, the compound and an internal standard (IS), were extracted from 100% mouse, rat, pig, or monkey plasma (70 μL) using Isopropanol-Methanol. Two distinct layers were formed upon centrifugation with the compound and the IS located in the supernatant layer. An aliquot of the supernatant (150 μL) was transferred to a Waters Sirocco Protein Precipitation Plate. The supernatant was eluted using a positive pressure manifold. The supernatant was mixed with 100-2 Water-Formic acid (400 μL) in a pretreated Sep-Pak tC18 SPE plate and eluted to waste. The peptide and IS were eluted with Acetonitrile-Formic acid (100 μL) in 2 steps (50 μL each step). The elution (40 μL) from SPE plate was mixed with diluent solution (1.875 μL 5× invitrosol and 3.125 μL 1% formic acid in water, 80 μL). A final sample (10 μl) was loaded onto a Xselect CSH C18 IS column (3.5 μm 2.1×20 mm). The column effluent was directed into a Thermo Fisher Scientific Orbitrap (Exploris 240) mass spectrometer for detection and quantitation.
Male Yucatan mini-pigs were administered a single subcutaneous dose or intravenous dose (19 or 99 nmol/kg) of compound in 40 mM Tris-HCl 5% D-mannitol (pH 8) at a volume of 0.01 or 0.05 mL/kg. Blood was collected from each animal at 0.083 (IV only), 0.5, 3, 6, 24, 48, 72, 96, 168, 240, 336, 408, and 504 hours postdose for pharmacokinetic characterization.

[3] = donors displaying MHC-II peptides / donors tested
[4] = percentage of donors displaying MHC-II peptides
[5] = Yucatan mini-pig, minipig, plasma, sc, male Yucatan pigs, single subcutaneous dose 19 nmol/kg, Mean, read-out: AUC0-inf
[6] = Yucatan mini-pig, minipig, plasma, sc, male Yucatan pigs, single subcutaneous dose 19 nmol/kg, Mean, read-out: Cmax
[7] = male Yucatan pigs, single subcutaneous dose 19 nmol/kg, individual animal
[8] = male, Yucatan mini-pig, minipig, plasma, iv, 19 nmol/kg, single intravenous dose 19 nmol/kg, individual animal
[9] = male, Yucatan mini-pig, minipig, plasma, iv, 19 nmol/kg, single intravenous dose 19 nmol/kg, mean
[10] = male, Yucatan mini-pig, minipig, plasma, sc, 19 nmol/kg, single subcutaneous dose 19 nmol/kg, Mean
[11] = male, Yucatan mini-pig, minipig, plasma, sc, 19 nmol/kg, single subcutaneous dose 19 nmol/kg, Mean, read-out: CL/F (converted)
[12] = male, Yucatan mini-pig, minipig, plasma, sc, 19 nmol/kg, single subcutaneous dose 19 nmol/kg, Mean, read-out: Tmax
[13] = male, Yucatan mini-pig, minipig, plasma, sc, 19 nmol/kg, single subcutaneous dose 19 nmol/kg, individual animal
[14] = minipig, plasma, single intravenous dose 19 nmol/kg, male Yucatan pigs, mean, read-out: AUC0-inf
[15] = minipig, plasma, single intravenous dose 19 nmol/kg, male Yucatan pigs, mean, read-out: C0
[16] = single intravenous dose 19 nmol/kg, male Yucatan pigs, individual animal

MAPPS Assay >10 donors with diverse MHC [1, 3] | MAPPS Assay >10 donors with diverse MHC [1, 4] [%] | AUC0-inf [2, 5] [µM·h] | Cmax [2, 6] [µM] | AUC0-inf [2, 7] | CL/F [2, 7] | Cmax [2, 7] | T1/2 [2, 7] [h] | Tmax [2, 7] | clearance [2, 8] [mL/day/kg] | half-life [2, 8] [h] | clearance [2, 9] [mL/day/kg] | half-life [2, 9] [h] | half-life [2, 10] [h] | CL/F [2, 11] [mL/day/kg] | Tmax [2, 12] [h] | half-life [2, 13] [h] | AUC0-inf [2, 14] [µM·h] | Compound | peptides displayed on MHC-II complexes [1] | immunogenicity compared with SEQ ID NO:54 [1] | further results
0/10 | 0 | – | – | – | – | – | – | – | – | – | – | – | – | – | – | – | – | CC[C@H](C)[C@H](NC(C)=O)C(=O)N[C@H](C(=O)N[C@H](C(=O)N[C@@H](CO)C(=O)N[C@@](C)(CC(C)C)C(=O)N[C@@H](CC(=O)O)C(=O)N[C@@H](C(=O)N1CCC[C@H]1C(=O)N[C@H](C(=O)NC(C)(C)C(=O)N[C@@](C)(CC(C)C)C(=O)N[C@@H](CC(C)C)C(=O)N[C@@H](CCC(N)=O)C(=O)N[C@H](C(=O)N[C@@H](CCCCN)C(=O)N[C@@H](CC(C)C)C(=O)N[C@@H](CCC(=O)O)C(=O)N[C@@H](CCC(N)=O)C(=O)N[C@@H](CCC(=O)O)C(=O)N[C@@H](CCCNC(=N)N)C(=O)N[C@@H](C)C(=O)N[C@@H](CCC(=O)O)C(=O)N[C@@H](CCCCN)C(=O)N[C@@H](C)C(=O)N[C@@H](CCCNC(=N)N)C(=O)N[C@@H](CCC(N)=O)C(=O)N[C@@H](CCC(N)=O)C(=O)N[C@@H](C)C(=O)N[C@@H](CCCCNC(=O)COCCOCCNC(=O)COCCOCCNC(=O)CC[C@H](NC(=O)CCCCCCCCCCCCCCCCCCC(=O)O)C(=O)O)C(=O)N[C@@H](CCC(=O)O)C(=O)N[C@@H](CC(N)=O)C(=O)N[C@H](C(=O)N[C@@H](CCC(=O)O)C(=O)N[C@H](C(=O)N[C@@H](CC(C)C)C(=O)N[C@@H](C)C(=O)N[C@@H](CCC(N)=O)C(=O)N[C@H](C(N)=O)C(C)C)[C@@H](C)CC)[C@@H](C)O)[C@@H](C)CC)[C@@H](C)O)C(C)C)[C@@H](C)O)C(C)C [SEQ ID NO: 41, Ac-IVTS αMeL D (D-Val) PT Aib αMeL LQIKLEQERAEKARQQAK((2-[2-(2-Amino-ethoxy)-ethoxy]-acetyl)2-γE-CO-(CH2)18-CO2H)ENTEILAQV-NH2] (Ac-IVTS[αMeL]D[dV]PT[Aib][αMeL]LQIKLEQERAEKARQQAK([AEEA-AEEA-γGlu-C20 diacid])ENTEILAQV-NH2) | no peptides displayed on MHC-II complexes | substantial improvements in immunogenicity over a compound comprising SEQ ID NO:54 | –
6/26 | 23 | – | – | – | – | – | – | – | – | – | – | – | – | – | – | – | – | CC[C@H](C)[C@H](NC)C(=O)N[C@H](C(=O)N[C@H](C(=O)N[C@@H](CO)C(=O)N[C@@H](CC(C)C)C(=O)N[C@@H](CC(=O)O)C(=O)N[C@H](C(=O)N1CCC[C@H]1C(=O)N[C@H](C(=O)NCC(=O)N[C@@](C)(CC(C)C)C(=O)N[C@@H](CC(C)C)C(=O)N[C@@H](CCC(N)=O)C(=O)N[C@@H](CCCCN)C(=O)N[C@@H](CC(C)C)C(=O)N[C@H](C(=O)N[C@@H](CCC(=O)O)C(=O)N[C@@H](CCC(N)=O)C(=O)N[C@@H](CCC(=O)O)C(=O)N[C@@H](CCCCN)C(=O)N[C@@H](CCC(N)=O)C(=O)N[C@@H](CCC(=O)O)C(=O)N[C@@H](CCCCN)C(=O)N[C@@H](CCC(=O)O)C(=O)N[C@@H](CCCCN)C(=O)N[C@@H](CCC(N)=O)C(=O)N[C@@H](CCC(N)=O)C(=O)N[C@@H](C)C(=O)N[C@@H](CCCCNC(=O)COCCOCCNC(=O)COCCOCCNC(=O)CC[C@H](NC(=O)CCCCCCCCCCCCCCCCCCC(=O)O)C(=O)O)C(=O)N[C@@H](CCC(=O)O)C(=O)N[C@@H](CC(N)=O)C(=O)N[C@H](C(=O)N[C@@H](CCC(=O)O)C(=O)N[C@H](C(=O)N[C@@H](CC(C)C)C(=O)N[C@@H](C)C(=O)N[C@@H](CCC(N)=O)C(=O)N[C@H](C(N)=O)C(C)C)[C@@H](C)CC)[C@@H](C)O)[C@@H](C)CC)[C@@H](C)CC)C(C)C)[C@@H](C)O)C(C)C [SEQ ID NO: 49, (NMeI) VTSLDVPIG αMeL LQKLIEQEKQEKEKQQAK((2-[2-(2-Amino-ethoxy)-ethoxy]-acetyl)2-γE-CO-(CH2)18-CO2H)ENTEILAQV-NH2] (H-[NMeI]VTSLDVPIG[αMeL]LQKLIEQEKQEKEKQQAK([AEEA-AEEA-γGlu-C20 diacid])ENTEILAQV-NH2) | at least one peptide cluster on MHC-II complexes in a subset of donors | substantial improvements in immunogenicity over a compound comprising SEQ ID NO:54 | –
– | – | 18.1 | 0.107 | 24.4 µM·h and 11.7 µM·h | 18.9 mL/day/kg and 39.1 mL/day/kg | 0.154 µM and 0.0604 µM | 90.8 | 6 h and 96 h | 15.6 | 95.4 | 14.6 | 85.3 | 80.8 | 29 | 51 | 70.7 | 30.9 | Ac-GSPSIVTS[αMeL]DVPT[Aib][αMeL]LQKLLEQERAEKARQQAK([γGlu-AEEA-εLys-C20 diacid])EAAEILAQV-NH2 [SEQ ID NO: 2, Ac-GSPSIVTS αMeL DVPT Aib αMeL LQKLLEQERAEKARQQAK(γE-(2-[2-(2-Amino-ethoxy)-ethoxy]-acetyl)-ϵK-CO-(CH2)18-CO2H)EAAEILAQV-NH2] | – | – | C0 [2, 15]: 0.694 µM; AUC0-inf [2, 16]: 28.9 µM·h and 32.8 µM·h; C0 [2, 16]: 0.809 µM and 0.578 µM; CL [2, 16]: 13.7 mL/day/kg; T1/2 [2, 16]: 75.1 h
– | – | 32.5 | 0.149 | 29.3 µM·h and 35.6 µM·h | 13.6 mL/day/kg | 0.14 µM and 0.157 µM | 66.8 | 48 h and 6.0 h | 13.9 | 86.7 | 12.5 | 88 | 68.5 | 14.6 | 27 | 70.1 | 36.9 | Ac-PPPIVTS[αMeL]DVPT[Aib][αMeL]LQKLLEQERAEKARQQAK([γGlu-AEEA-εLys-C20 diacid])EAAEILAQV-NH2 [SEQ ID NO: 48, Ac-PPPIVTS αMeL DVPT Aib αMeL LQKLLEQERAEKARQQAK(γE-(2-[2-(2-Amino-ethoxy)-ethoxy]-acetyl)-ϵK-CO-(CH2)18-CO2H)EAAEILAQV-NH2] | – | – | CL/F ([2]; male, Yucatan mini-pig, minipig, plasma, sc, 19 nmol/kg, single subcutaneous dose 19 nmol/kg, individual animal, read-out: CL/F (converted)): 15.7 mL/day/kg; C0 [2, 15]: 0.943 µM; AUC0-inf [2, 16]: 32.5 µM·h and 41.2 µM·h; C0 [2, 16]: 0.899 µM and 0.987 µM; CL [2, 16]: 11 mL/day/kg; T1/2 [2, 16]: 89.2 h
